The test has as its target human GPR120 (Homo sapiens (Human), UniProt Q5NUL3). Description: GPR120 pERK AlphaScreen SureFire Assay (human GPR120 pERK assay). The test is classed as cell-based. Particulars: CHO cells stably transfected with short form of human GPR120. An excerpt: GPR120 activity was monitored by measuring phosphorylation of ERK (pERK), since G protein receptors are known to activate the ERK signaling cascade either directly and/or through recruitment of arrestin that serves as a scaffold for downstream signaling events.
GPR120 pERK AlphaScreen SureFire Assay
The human and mouse GPR120-mediated intracellular phosphorylated ERK assays were established using CHOA12 cells stably transfected with the short form of human or mouse GPR120 receptor. Cells were cultured in growth medium consisting of F-12 media (Invitrogen Cat. #11765) with 5% Charcoal/Dextran FBS (Invitrogen Cat. #12676-029), 500 μg/mL GENETICIN® (Life Technologies Cat. #10131-027) and 250 μg/mL Zeocin (Invitrogen Cat. #R250-01). Cells were cryo-preserved at a concentration of 2×10^7 cells/mL, in 90% Charcoal/Dextran FBS and 10% DMSO, and frozen in liquid nitrogen at a low passage number.
For the pERK assay, 2×10^7 cells/mL cryopreserved human and mouse cells were thawed rapidly in a 37° C. water bath and added to a T-225 flask containing 50 mL growth medium. The flasks were placed in a tissue culture incubator overnight (37° C., 5% CO2). The next day, cells were harvested with trypsin (Gibco Cat. #25300-054), resuspended in serum-containing growth medium and counted using a Cellometer and volume adjusted to a concentration of 0.6×10^6 cells/mL. Cells were plated into 384-well clear bottom tissue culture plates (BD Cat. #353962) at 50 μL/well, for a density of 30,000 cells/well using a MULTIDROP® and incubated for 16-18 hours (overnight) at 37° C. with 5% CO2. The next day, cells were serum starved in 30 μL of F-12 media without any serum or antibiotics for 2 hours at 37° C.
Test compounds were 3-fold, 11-point serially diluted in DMSO in a REMP assay plate (Matrix Cat. #4307) by Tecan and 5 μL was transferred into an ECHO source plate (Labcyte Cat. #LC-0200). Cells were then stimulated with 50 nL of compound dilutions using ECHO liquid handler for 7 min at 37° C. Compounds ranged from final assay concentrations of 33.33 μM to 0.56 nM.
The media was then dumped and cells lysed with 20 μL of 1× Lysis buffer from the AlphaScreen SureFire Phospho-ERK 1/2 Kit (Perkin Elmer Cat. #6760617M). The lysis buffer was diluted 5-fold with water before use. The plate was agitated on a shaker for 10 min after which 2 μL was transferred into a 384-well white proxiplate (Perkin Elmer Cat. #6008289). The SureFire assay reagent mix was prepared by mixing 60 parts Reaction Buffer, 10 parts Activation Buffer, 1 part Donor Beads, 1 part Acceptor Beads (Perkin Elmer Cat. #TGRES10K). 3.5 μL/well of this reagent mix was manually added to the proxiplate with a multichannel pipettor. Plates were spun down at 1000 rpm for 2 min, followed by light-protected incubation at room temperature for 2 hours. The plates were read on the Alpha-technology compatible Envision multilabel plate reader using AlphaScreen protocol according to manufacturer's specifications. The agonist effect of compounds was expressed as 100×(average sample-average blank)/(average total-average blank) where sample is the luminescence activity in the presence of test compound, blank is equal to the luminescence activity in the presence of DMSO control and the total is signal induced by 50 μM linolenic acid as reference compound. Activation data for the test compound over a range of concentrations was plotted as percentage activation of the test compound (100%=maximum response). After correcting for background, EC50 values were determined. The EC50 is defined as the concentration of test compound which produces 50% of the maximal response and was quantified using the 4 parameter logistic equation to fit the data.
The human and mouse GPR120-mediated intracellular phosphorylated ERK assays were also established using CHO-K1 cells stably transfected with the short form of human or mouse GPR120 receptor. […]
human GPR120, sequence (Q5NUL3 whole entry): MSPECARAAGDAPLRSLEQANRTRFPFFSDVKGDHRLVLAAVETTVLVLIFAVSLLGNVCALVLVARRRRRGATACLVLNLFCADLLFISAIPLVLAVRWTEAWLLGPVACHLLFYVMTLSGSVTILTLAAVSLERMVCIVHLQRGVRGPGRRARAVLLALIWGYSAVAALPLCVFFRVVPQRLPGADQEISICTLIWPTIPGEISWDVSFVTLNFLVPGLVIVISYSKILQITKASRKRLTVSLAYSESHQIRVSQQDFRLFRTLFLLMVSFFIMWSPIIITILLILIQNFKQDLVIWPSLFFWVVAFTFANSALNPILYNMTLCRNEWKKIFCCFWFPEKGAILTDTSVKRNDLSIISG
Take `O=C(O)[C@@H]1C[C@H]1COc1ccc(-c2cc(Oc3ccccc3)cnc2Cl)cc1` (racemic) [Example 110, Trans-2-((4-(2-chloro-5-phenoxypyridin-3-yl)phenoxy)methyl)cyclopropanecarboxylic acid]: the EC50 was 430 nM. For `Cc1ccc(Oc2ccc(F)c(-c3ccc(OCC4CC4C(=O)O)c(F)c3)c2)cc1F` (racemic) [Example 100, Trans-2-(((2′,3-difluoro-5′-(3-fluoro-4-methylphenoxy)-[1,1′-biphenyl]-4-yl)oxy)methyl)cyclopropanecarboxylic acid], the EC50 was 260 nM. `O=C(O)C1CC1COc1ccc(-c2cc(OC(F)(F)F)ccc2F)cc1` (racemic) [Example 51, Trans-2-(((2′-fluoro-5′-(trifluoromethoxy)-[1,1′-biphenyl]-4-yl)oxy)methyl)cyclopropanecarboxylic acid]: the EC50 worked out at 470 nM.

On to `CC(C)Oc1ccc(F)c(-c2ccc(OC[C@@H]3C[C@H]3C(=O)O)c(C(F)(F)F)c2)c1` (racemic) [Example 88, Trans-2-(((2′-fluoro-5′-isopropoxy-3-(trifluoromethyl)-[1,1′-biphenyl]-4-yl)oxy)methyl) cyclopropanecarboxylic acid], for which the EC50 stood at 180 nM. In the case of `COCc1cc(OC(C)C)cc(-c2ccc(OC[C@@H]3C[C@H]3C(=O)O)cc2)c1` (racemic) [Example 86, Trans-2-(((3′-isopropoxy-5′-(methoxymethyl)-[1,1′-biphenyl]-4-yl)oxy)methyl) cyclopropanecarboxylic acid], the EC50 amounted to 3620 nM. Compound `CC(C)Oc1cc(F)c(F)c(-c2ccc(OC[C@@H]3C[C@H]3C(=O)O)c(F)c2)c1` (single isomer, unassigned) [Example 66] displayed a concentration giving a half-maximal response (EC50) of 320 nM.

As to `CC(C)Oc1ccc(F)c(-c2ccc(CC[C@]3(F)C[C@@H]3C(=O)O)cc2)c1` (racemic) [Example 40, Trans-2-fluoro-2-(2-(2′-fluoro-5′-isopropoxy-[1,1′-biphenyl]-4-yl)ethyl) cyclopropanecarboxylic acid], it took 5090 nM to reach a half-maximal effect (EC50).

`O=C(O)C1CC1COc1ccc(-c2cc(OC(F)(F)F)ccc2F)cc1` (single isomer, unassigned) [Example 53, Trans-2-(((2′-fluoro-5′-(trifluoromethoxy)-[1,1′-biphenyl]-4-yl)oxy)methyl)cyclopropanecarboxylic acid] gave an EC50 of 330 nM. Compound `COc1ncc(Cl)cc1-c1ccc(CC[C@@H]2C[C@H]2C(=O)O)cc1` (racemic) [Example 78, Trans-2-(4-(5-chloro-2-methoxypyridin-3-yl)phenethyl) cyclopropanecarboxylic acid] showed an EC50 of 6090 nM. Then `Cc1ccc(Oc2cc(F)c(F)c(-c3ccc(OCC4CC4C(=O)O)c(F)c3)c2)cc1F` (racemic) [Example 107], with 310 nM. As to `CC(C)Oc1ccc(F)c(-c2ccc(OC[C@H]3C[C@@H]3C(=O)O)cc2)c1` (single isomer, unassigned) [Example 2], the EC50 worked out at 250 nM. `O=C(O)[C@@H]1C[C@H]1COc1ccc(-c2cc(Oc3ccc(F)cc3)ccc2F)cc1` (racemic) [Example 44, Trans-2-(((2′-fluoro-5′-(4-fluorophenoxy)-[1,1′-biphenyl]-4-yl)oxy)methyl)cyclopropanecarboxylic acid] displayed an EC50 of 270 nM.

In turn, `CC1(C)Cc2c(ccc(F)c2-c2ccc(OCC3CC3C(=O)O)cc2)O1` (stereo not drawn) [Example 22, 2-((4-(5-Fluoro-2,2-dimethyl-2,3-dihydrobenzofuran-4-yl)phenoxy)methyl) cyclopropanecarboxylic acid] returned an EC50 of 1250 nM.

The compound `O=C(O)C1CC1COc1ccc(-c2cc(Oc3cccc(F)c3)cc(F)c2F)cc1F` (racemic) [Example 104, Trans-2-(((2′,3,3′-trifluoro-5′-(3-fluorophenoxy)-[1,1′-biphenyl]-4-yl)oxy)methyl)cyclopropanecarboxylic acid] yielded an EC50 of 90 nM.

In the case of `O=C(O)[C@@H]1C[C@H]1COc1ccc(-c2cc(Oc3cccc(F)c3)cc(F)c2F)cc1F` (single isomer, unassigned) [Example 106], the half-maximal effective concentration (EC50) is 270 nM. With `O=C(O)[C@@H]1C[C@H]1COc1ccc(-c2cc(Oc3ccc(F)c(F)c3)ccc2F)cc1` (racemic) [Example 91, Trans-2-(((5′-(3,4-difluorophenoxy)-2′-fluoro-[1,1′-biphenyl]-4-yl)oxy)methyl) cyclopropanecarboxylic acid], the EC50 is 310 nM.

Compound `CC(C)Oc1ccc(F)c(-c2ccc(CC[C@H]3C[C@H]3C(=O)O)cc2)c1` (racemic) [Example 15, (Cis)-(+/−)-2-(2-(2′-fluoro-5′-isopropoxy-[1,1′-biphenyl]-4-yl)ethyl) cyclopropanecarboxylic acid] displayed an EC50 of 1690 nM. For `CC(C)Oc1ccc(F)c(-c2ccc(CC[C@@H]3C[C@H]3C(=O)O)cc2)c1` (single isomer, unassigned) [Example 31], the half-maximal effective concentration (EC50) was found to be 640 nM.

The compound `Cc1cc(-c2cc(OC(C)C)ccc2F)ccc1OC[C@@H]1C[C@H]1C(=O)O` (racemic) [Example 46, Trans-2-(((2′-fluoro-5′-isopropoxy-3-methyl-[1,1′-biphenyl]-4-yl)oxy)methyl)cyclopropanecarboxylic acid] displayed an EC50 of 310 nM. As for `CC(C)Oc1ccc(F)c(-c2ccc(CC[C@H]3C[C@@H]3C(=O)O)cc2)c1` (single isomer, unassigned) [Example 32], the response was half-maximal at 990 nM (EC50). The compound `Cc1ccc(Oc2ccc(F)c(-c3ccc(OC[C@@H]4C[C@H]4C(=O)O)c(F)c3)c2)cn1` (racemic) [Example 103, Trans-2-(((2′,3-difluoro-5′-((6-methylpyridin-3-yl)oxy)-[1,1′-biphenyl]-4-yl)oxy)methyl)cyclopropanecarboxylic acid] gave a half-maximal effective concentration (EC50) of 170 nM. In turn, `O=C(O)[C@@H]1C[C@H]1COc1ccc(-c2cnn(Cc3ccccc3)c2)cc1` (racemic) [Example 83, Trans-2-((4-(1-benzyl-1H-pyrazol-4-yl)phenoxy)methyl)cyclopropanecarboxylic acid] returned a concentration for a half-maximal effect (EC50) of 3050 nM.

Consider `CC(C)Oc1cc(F)c(F)c(-c2ccc(OC[C@@H]3C[C@H]3C(=O)O)c(F)c2)c1` (racemic) [Example 65, Trans-2-(((2′,3,3′-trifluoro-5′-isopropoxy-[1,1′-biphenyl]-4-yl)oxy)methyl)cyclopropanecarboxylic acid], for which the concentration giving a half-maximal response (EC50) stood at 330 nM. `O=C(O)[C@@H]1C[C@H]1COc1ccc(-c2cc(OCC3CC3)ccc2F)cc1` (racemic) [Example 95, Trans-2-(((5′-(cyclopropylmethoxy)-2′-fluoro-[1,1′-biphenyl]-4-yl)oxy)methyl)cyclopropanecarboxylic acid] came in with a concentration giving a half-maximal response (EC50) of 370 nM. `CC(C)Oc1ccc(F)c(-c2ccc(OC[C@@H]3C[C@H]3C(=O)O)c(CC=O)c2)c1` (racemic) [Example 90, Trans-2-(((2′-fluoro-5′-isopropoxy-3-(2-oxoethyl)-[1,1′-biphenyl]-4-yl)oxy)methyl) cyclopropanecarboxylic acid] showed a 50% effective concentration (EC50) of 930 nM. Take `O=C(O)[C@@H]1C[C@H]1COc1ccc(-c2cc(Cl)cc(C(F)(F)F)c2)cc1` (racemic) [Example 124, Trans-2-(((3′-chloro-5′-(trifluoromethyl)-[1,1′-biphenyl]-4-yl)oxy)methyl)cyclopropanecarboxylic acid]: a half-maximal effect (EC50) was put at 2440 nM. `O=C(O)[C@H]1C[C@H]1COc1ccc(-c2cc(Oc3ccccc3)ccc2F)cc1` (single isomer, unassigned) [Example 6] yielded an EC50 of 410 nM.

As a reminder, the EC50 is the concentration needed to bring the measured effect to its halfway point.
